# Calls of active or inactive are those of the source.
# Legend:
# [1] = biological target: FAD-linked sulfhydryl oxidase ALR (Homo sapiens, UniProt P55789); assay: ALR-catalysed DTT oxidation blockers – biochemical, H2O2 detection, luminescence, cherry-pick, dose response (AID 493248)
# [2] = biological target: 5-hydroxytryptamine receptor 2A (Mus musculus, UniProt P35363); type: functional, cell-based;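 also: CHO-K1 cells with tagged receptor and beta-arrestin; agonist potency measured as compound-induced activation of the receptor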
# Sequence of 5-hydroxytryptamine receptor 2A (P35363 whole entry): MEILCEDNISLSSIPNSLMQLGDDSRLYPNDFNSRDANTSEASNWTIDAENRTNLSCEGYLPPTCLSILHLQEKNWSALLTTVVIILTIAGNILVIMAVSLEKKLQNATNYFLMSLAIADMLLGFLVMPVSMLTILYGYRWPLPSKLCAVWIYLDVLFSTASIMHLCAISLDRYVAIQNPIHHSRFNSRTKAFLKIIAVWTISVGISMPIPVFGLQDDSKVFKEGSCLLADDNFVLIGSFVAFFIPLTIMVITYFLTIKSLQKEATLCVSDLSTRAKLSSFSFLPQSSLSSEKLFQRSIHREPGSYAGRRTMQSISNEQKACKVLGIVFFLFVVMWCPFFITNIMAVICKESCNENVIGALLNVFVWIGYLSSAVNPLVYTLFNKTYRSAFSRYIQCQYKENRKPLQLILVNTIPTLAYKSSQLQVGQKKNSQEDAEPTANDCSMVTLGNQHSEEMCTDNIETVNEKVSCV
# Mu-type opioid receptor = Mu-type opioid receptor (Homo sapiens, UniProt P35372); type: functional, cell-based;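 also: U2OS cells with beta-arrestin recruitment to OPRM1 by beta-gal complementation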
# Sequence of Mu-type opioid receptor (P35372 whole entry): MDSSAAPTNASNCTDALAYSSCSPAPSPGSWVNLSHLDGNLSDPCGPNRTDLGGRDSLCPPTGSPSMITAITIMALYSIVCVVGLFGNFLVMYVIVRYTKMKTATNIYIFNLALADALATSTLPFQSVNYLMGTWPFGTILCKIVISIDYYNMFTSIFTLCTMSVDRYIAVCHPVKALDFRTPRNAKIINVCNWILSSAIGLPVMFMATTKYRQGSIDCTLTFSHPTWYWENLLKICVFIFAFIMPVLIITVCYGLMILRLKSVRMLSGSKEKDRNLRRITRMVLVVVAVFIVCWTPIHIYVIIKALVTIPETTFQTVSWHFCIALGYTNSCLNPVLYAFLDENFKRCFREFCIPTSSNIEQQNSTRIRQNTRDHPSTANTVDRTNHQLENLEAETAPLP
# [3] = biological target: Histone-lysine N-methyltransferase NSD2 (Homo sapiens, UniProt O96028); type: biochemical
# Sequence of Histone-lysine N-methyltransferase NSD2 (O96028 whole entry): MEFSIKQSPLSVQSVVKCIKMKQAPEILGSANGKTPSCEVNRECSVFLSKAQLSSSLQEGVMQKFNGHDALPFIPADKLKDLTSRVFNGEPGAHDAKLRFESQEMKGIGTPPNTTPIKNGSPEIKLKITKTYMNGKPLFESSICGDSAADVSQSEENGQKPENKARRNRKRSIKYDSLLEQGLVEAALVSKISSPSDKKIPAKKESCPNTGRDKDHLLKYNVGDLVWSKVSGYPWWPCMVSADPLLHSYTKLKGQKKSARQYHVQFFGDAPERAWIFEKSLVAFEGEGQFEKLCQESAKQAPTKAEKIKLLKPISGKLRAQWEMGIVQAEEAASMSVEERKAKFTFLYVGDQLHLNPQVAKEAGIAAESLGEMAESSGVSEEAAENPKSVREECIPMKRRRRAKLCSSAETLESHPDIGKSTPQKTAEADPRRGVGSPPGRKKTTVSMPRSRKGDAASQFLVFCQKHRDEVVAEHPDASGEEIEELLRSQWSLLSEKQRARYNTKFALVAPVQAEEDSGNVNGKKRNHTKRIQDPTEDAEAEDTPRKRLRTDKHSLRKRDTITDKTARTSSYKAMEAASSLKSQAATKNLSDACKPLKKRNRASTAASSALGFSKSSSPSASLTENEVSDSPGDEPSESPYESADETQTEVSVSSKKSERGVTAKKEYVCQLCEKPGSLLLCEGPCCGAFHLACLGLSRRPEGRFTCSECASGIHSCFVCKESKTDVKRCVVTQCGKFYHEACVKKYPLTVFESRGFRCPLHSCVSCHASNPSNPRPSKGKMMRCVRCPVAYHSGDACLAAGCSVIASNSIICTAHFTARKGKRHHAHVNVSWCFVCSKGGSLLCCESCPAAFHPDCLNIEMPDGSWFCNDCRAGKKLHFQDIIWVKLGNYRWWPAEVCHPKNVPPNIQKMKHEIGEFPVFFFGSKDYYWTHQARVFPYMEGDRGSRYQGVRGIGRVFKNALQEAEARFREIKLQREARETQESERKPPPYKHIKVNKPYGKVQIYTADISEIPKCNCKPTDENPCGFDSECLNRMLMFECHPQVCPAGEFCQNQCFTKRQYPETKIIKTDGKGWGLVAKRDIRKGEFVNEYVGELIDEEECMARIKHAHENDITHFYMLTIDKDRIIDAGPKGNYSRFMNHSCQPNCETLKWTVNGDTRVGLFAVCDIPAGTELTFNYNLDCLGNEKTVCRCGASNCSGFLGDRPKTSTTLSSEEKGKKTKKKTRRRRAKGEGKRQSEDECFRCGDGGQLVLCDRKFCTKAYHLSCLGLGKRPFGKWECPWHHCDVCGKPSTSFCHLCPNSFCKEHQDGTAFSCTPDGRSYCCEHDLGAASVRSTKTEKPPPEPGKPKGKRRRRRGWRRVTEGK
# [4] = NIH3T3 cell viability loss – ATP luminescence, mouse fibroblasts, counter-screen, dose response (AID 2010); type: functional, cell-based;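 also: cells exposed to compound for about 90 hours before reading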
# [5] = Trypanosoma cruzi growth suppression in host cells – NIH3T3 host cells, beta-gal luminescence, confirmation (AID 2044); type: functional, cell-based;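 also: intracellular parasites grown in NIH/3T3 mouse fibroblasts as host cells; luminescent beta-galactosidase reporter signal from transgenic T. cruzi replicating inside host cells; inhibitors lower the luminescence signal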
# Beta-galactosidase = Beta-galactosidase (Escherichia coli, UniProt Q8VNN2); assay: Dose response counterscreen for EBI2 assay utilizing the enzyme, b-galactosidase.; type: functional
# Sequence of Beta-galactosidase (Q8VNN2 whole entry): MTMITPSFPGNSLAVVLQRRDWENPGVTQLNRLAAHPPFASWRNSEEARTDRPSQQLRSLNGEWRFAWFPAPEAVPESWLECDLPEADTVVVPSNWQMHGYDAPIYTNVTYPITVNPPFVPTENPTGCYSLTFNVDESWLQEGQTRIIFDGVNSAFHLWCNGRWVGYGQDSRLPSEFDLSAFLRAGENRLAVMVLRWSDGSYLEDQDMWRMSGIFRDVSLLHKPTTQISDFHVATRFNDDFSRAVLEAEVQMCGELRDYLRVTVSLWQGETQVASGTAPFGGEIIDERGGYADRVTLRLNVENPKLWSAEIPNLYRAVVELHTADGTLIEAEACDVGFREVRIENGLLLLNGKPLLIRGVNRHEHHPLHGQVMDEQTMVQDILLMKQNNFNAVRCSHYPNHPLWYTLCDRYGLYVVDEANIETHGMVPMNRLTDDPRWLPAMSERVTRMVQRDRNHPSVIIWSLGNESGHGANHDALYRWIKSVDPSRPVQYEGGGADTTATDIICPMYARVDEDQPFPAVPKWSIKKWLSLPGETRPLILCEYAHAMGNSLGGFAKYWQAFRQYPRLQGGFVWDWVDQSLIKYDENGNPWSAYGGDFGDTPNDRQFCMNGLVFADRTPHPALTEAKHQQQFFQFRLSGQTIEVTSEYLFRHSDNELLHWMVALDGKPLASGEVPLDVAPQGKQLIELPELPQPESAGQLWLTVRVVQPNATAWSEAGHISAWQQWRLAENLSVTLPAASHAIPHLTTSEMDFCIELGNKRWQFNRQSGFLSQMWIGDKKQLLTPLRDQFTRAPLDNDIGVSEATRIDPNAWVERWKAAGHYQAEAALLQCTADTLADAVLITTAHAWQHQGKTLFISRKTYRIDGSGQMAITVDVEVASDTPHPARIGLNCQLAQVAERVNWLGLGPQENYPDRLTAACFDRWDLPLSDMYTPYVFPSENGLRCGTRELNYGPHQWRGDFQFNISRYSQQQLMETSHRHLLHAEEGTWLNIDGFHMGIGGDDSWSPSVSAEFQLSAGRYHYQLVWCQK
# fMet-Leu-Phe receptor = fMet-Leu-Phe receptor (Homo sapiens, UniProt P21462); assay: formyl peptide receptor binders – dose response (AID 519); type: functional
# Sequence of fMet-Leu-Phe receptor (P21462 whole entry): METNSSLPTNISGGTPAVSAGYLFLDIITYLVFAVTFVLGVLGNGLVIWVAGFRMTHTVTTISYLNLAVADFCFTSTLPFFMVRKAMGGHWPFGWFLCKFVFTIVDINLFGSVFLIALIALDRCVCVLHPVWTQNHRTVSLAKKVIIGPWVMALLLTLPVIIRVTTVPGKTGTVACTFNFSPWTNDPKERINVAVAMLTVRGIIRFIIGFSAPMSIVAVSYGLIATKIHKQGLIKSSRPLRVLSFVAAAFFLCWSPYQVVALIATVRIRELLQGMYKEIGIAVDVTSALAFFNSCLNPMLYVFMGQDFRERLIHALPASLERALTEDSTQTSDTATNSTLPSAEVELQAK
# [6] = biological target: T1, Nuclear receptor subfamily 0 group B member 1 (Homo sapiens, UniProt P51843); type: functional, cell-based;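 also: HEK293T cells transfected with SF-1 and DAX-1 plus StAR promoter luciferase reporter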
# T1 sequence (P51843 whole entry): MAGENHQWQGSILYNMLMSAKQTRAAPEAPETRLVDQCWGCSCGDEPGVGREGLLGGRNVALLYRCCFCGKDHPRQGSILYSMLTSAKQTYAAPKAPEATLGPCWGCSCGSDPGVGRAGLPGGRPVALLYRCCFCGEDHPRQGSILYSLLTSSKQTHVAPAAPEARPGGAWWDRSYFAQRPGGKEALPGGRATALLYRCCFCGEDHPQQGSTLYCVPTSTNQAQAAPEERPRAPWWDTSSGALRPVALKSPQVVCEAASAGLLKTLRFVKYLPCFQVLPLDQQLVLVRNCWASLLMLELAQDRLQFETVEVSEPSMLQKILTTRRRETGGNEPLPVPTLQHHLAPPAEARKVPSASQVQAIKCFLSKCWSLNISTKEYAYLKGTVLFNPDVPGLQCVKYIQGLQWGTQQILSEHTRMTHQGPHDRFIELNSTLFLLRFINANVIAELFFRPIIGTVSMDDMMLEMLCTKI
# cells = type: functional, cell-based
# H9c2 = assay: cells; type: functional, cell-based; details: Rattus norvegicus, H9c2, Myocardium;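 also: confirmatory concentration-response retest of ultra-high-throughput screening hits for modulation of myocardial damage; cell death induced by hydrogen peroxide oxidative stress; compound pretreatment for 60 min then peroxide exposure for 2 h; potency is for protecting the cells against peroxide damage rather than for killing them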
# [7] = biological target: DNA repair protein RAD52 homolog (Homo sapiens, UniProt P43351); type: functional, biochemical
# Sequence of DNA repair protein RAD52 homolog (P43351 whole entry, the tested form may be a part): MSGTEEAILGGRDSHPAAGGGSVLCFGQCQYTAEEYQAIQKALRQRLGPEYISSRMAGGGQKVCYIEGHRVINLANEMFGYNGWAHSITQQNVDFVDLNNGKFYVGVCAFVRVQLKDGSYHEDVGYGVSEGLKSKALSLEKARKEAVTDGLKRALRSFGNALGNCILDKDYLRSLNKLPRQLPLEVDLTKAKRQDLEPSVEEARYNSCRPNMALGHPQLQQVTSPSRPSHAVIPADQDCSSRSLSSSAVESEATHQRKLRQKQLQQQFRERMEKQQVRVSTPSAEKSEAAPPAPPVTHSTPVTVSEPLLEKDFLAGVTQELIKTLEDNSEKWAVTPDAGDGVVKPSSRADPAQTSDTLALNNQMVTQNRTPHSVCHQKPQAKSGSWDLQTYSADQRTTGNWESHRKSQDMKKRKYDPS
# [8] = blockers of HIV-1 envelope-mediated cell-cell fusion – cherry-pick, dose response (AID 652057); type: functional, cell-based
# [9] = viability loss in CEM21 cells – cell-based, CellTiter-Glo luminescence, cherry-picked, cytotoxicity control for viral fusion inhibitor project, dose response (AID 652042); type: functional;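 also: potency for signal decrease meaning cytotoxicity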
# [10] = off-target signal loss in HeLa-CEM21 co-culture – HeLa F-luc CTL cells, cherry-picked, counter-screen for HIV-1 Env fusion inhibitor project, dose response (AID 652040); type: functional, cell-based;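 also: potency for signal decrease marking cytotoxic or nonspecific inhibition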
# [11] = HIV-1 AD8 envelope cell-cell fusion blockers – cherry-pick, dose response (AID 652062); type: functional, cell-based;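 also: luciferase signal from cell-cell fusion driven by HIV-1 clade B AD8 Env; potency is for inhibitors of fusion seen as a drop in luminescence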
# [12] = blockers of HIV-1 ZM109 envelope-driven cell-cell fusion – HeLa effector, CEM target cells, luciferase, cherry-pick, dose response (AID 652058); type: functional, cell-based;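 also: luciferase signal from HIV-1 Env mediated cell-cell fusion of effector and target cells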
# HEK293 [13] = assay: viability loss in HEK293T cells – cell-based, ATP luminescence, cherry-pick samples, cytotoxicity control, dose response (AID 687005); type: functional; details: Homo sapiens;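 also: cells exposed to compound for 48 hours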
# [14] = HEK293 Cytotoxicity Assay Measured in Cell-Based System Using Plate Reader - 7071-01_Inhibitor_Dose_CherryPick_Activity_Set2.; type: functional
# [15] = IGROV1 cell killing – plate reader, dry powder samples, PAX8 inhibitor project, dose response (AID 743043); type: functional, cell-based; details: IGROV-1
# [16] = OVCAR-3 cell viability loss – plate reader, dry powder samples, PAX8 inhibitor project, dose response (AID 743044); type: functional, cell-based
# Paired box protein Pax-8 = Paired box protein Pax-8 (Homo sapiens, UniProt Q06710); assay: PAX8 transcriptional activity inhibition in RMG-I – RMG-I cells, luciferase, cherry-pick, dose response (AID 687027); type: functional, cell-based;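 also: luciferase reporter driven by Pax8 target thyroperoxidase promoter measured by SteadyGlo luminescence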
# Sequence of Paired box protein Pax-8 (Q06710 whole entry): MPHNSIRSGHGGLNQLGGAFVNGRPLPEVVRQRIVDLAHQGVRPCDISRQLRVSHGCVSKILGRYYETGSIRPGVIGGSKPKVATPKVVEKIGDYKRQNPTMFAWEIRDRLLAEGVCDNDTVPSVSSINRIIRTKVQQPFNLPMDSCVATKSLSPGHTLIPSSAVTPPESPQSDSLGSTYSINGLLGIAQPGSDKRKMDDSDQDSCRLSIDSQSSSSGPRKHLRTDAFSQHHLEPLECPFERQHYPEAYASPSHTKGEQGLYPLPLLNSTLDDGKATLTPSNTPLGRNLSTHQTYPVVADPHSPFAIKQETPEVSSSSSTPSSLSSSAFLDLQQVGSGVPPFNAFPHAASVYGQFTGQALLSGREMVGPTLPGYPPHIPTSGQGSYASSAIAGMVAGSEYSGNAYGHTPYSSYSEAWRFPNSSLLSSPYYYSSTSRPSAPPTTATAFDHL
# [17] = general mammalian cell viability loss – inhibitor set, cherry-pick, set 2, cytotoxicity control for miR-122 modulator project, dose response (AID 720697); type: functional, cell-based
# [18] = general mammalian cell viability loss – activator set, cherry-pick, cytotoxicity control for miR-122 modulator project, dose response (AID 720690); type: functional, cell-based;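 also: HEK293T human cells scored for general mammalian cytotoxicity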
# [19] = A549 cell cytotoxicity, dose response, cytotoxicity control, plate reader, cherry-pick, antagonist series (AID 743412); type: functional, cell-based
# [20] = general cell-killing toxicity readout – plate reader, dry powder samples, cytotoxicity control for PAX8 inhibitor project, dose response (AID 743021); type: functional, cell-based
# BJ [21] = assay: BJ-TERT-LT-ST fibroblast viability loss – cell-based, RAS-independent, luminescence, dose response (AID 1935); type: functional; details: Homo sapiens;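 also: BJ fibroblasts immortalized with TERT plus LT and ST oncogenes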
# [22] = reduction of Shn3 3'UTR-driven luciferase in osteoblasts – cell-based, Clone20 osteoblasts, firefly luciferase, cherry-picked, dose response (AID 624132); type: functional;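 also: firefly luciferase luminescence from reporter carrying the Shn3 3'UTR in osteoblasts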
# BJ [23] = assay: cells; type: functional, cell-based; details: Homo sapiens
# BJ [24] = assay: BJ-TERT fibroblast viability loss – cell-based, RAS-independent, luminescence, dose response (AID 1933); type: functional; details: Homo sapiens
# [25] = viability loss in HEK293 cells – cell-based, plate reader, cherry-picked samples, cytotoxicity control, dose response (AID 743446); type: functional
# HEK293 [26] = assay: EBV LMP1 TES2 canonical NF-kB signalling blockers – cell-based, HEK293, luciferase, cherry-pick, dose response (AID 588343); type: functional; details: Homo sapiens
# [27] = blockers of bursicon-stimulated LGR2 cAMP reporter – cell-based, HEK293, CRE-luciferase reporter, cherry pick, set 2, dose response (AID 743343); type: functional;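 also: transfected cells were stimulated with diluted bursicon conditioned medium after compound addition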
# BJ [28] = assay: growth inhibition of engineered Ras-driven BJ cells – cell-based, alamar blue fluorescence, cherrypicked samples, dose response (AID 2631); type: functional; details: Homo sapiens;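 also: confirmatory dose-response assay in RAS-dependent BJ fibroblasts engineered with TERT, LT and ST, with cytotoxicity read by fluorescence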
# [29] = Luminescence Cell-Based Dose Retest to Confirm Inhibitors of Cancer Stem Cells. [Related pubchem assays (depositor defined):AID2717, AID2721]; type: functional; details: Homo sapiens
# [30] = DRD fibroblast viability loss – cell-based, non-viral oncogenic, luminescence, dose response (AID 1934); type: functional; details: Homo sapiens
# [31] = non-specific 3'UTR reporter inhibition in Clone20-Shn3RL – cell-based, Renilla luciferase, cherry-picked, counter-screen for Shn3 inhibitor project, dose response (AID 624133); type: functional
# [32] = Fluorescence-based cell-based high throughput dose response assay for inhibitors of the interaction of nucleotide-binding oligomerization domain containing 2 (NOD2) and the receptor-interacting serine-threonine kinase 2 (RIPK2).; type: functional; details: Homo sapiens
# [33] = loss of viability in HepG2 cells – cell-based, CellTiter-Glo, cherry-picked, cytotoxicity control for Shn3 inhibitor project, dose response (AID 624134); type: functional
# [34] = toxicity toward HepG2 liver cells – cell-based, plate reader, cherry-pick, antagonist series, cytotoxicity control, dose response (AID 743416); type: functional
# [35] = blockade of melanocortin 4 receptor signaling – cell-based, plate reader, cherry pick, counter-screen for LGR2 antagonist project, dose response (AID 743444); type: functional;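 also: transfected HEK 293 cells stimulated with alpha-MSH peptide; potency of inhibitors of the alpha-MSH evoked signal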
# [36] = activation of miR-122 Renilla sensor silencing – cell-based, Huh7 psiCHECK-miR122, Renilla luciferase, cherry-picked, dose response (AID 651956); type: functional;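 also: huh7 hepatoma cells stably carrying a psiCHECK-2 miR-122 sensor plasmid; renilla luciferase signal reporting endogenous miR-122 activity after 48 h compound exposure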
# [37] = SNU-C1 cell viability reduction, dose response, CellTiter-Glo luminescence (AID 1117323); type: functional, cell-based
# [38] = CellTiter-Glo luminescence survival assay, SW480 colon tumor line, concentration-response curve, half-maximal inhibitory concentration (AID 1117338); type: functional
# [39] = cytotoxicity toward HCT116 cells – cell-based, CellTiter-Glo luminescence, IC50, dose response (AID 1117332); type: functional; details: HCT-116
# [40] = rise of 2N DNA cells, HeLa – IC50, dose response (AID 1117349); type: functional, cell-based
# [41] = cytotoxicity toward Colo320 cells – cell-based, CellTiter-Glo luminescence, IC50, dose response (AID 1117334); type: functional; details: COLO 320
# [42] = rise of 4N DNA cells, HeLa – IC50, dose response (AID 1117351); type: functional, cell-based
# [43] = RKO cell viability reduction, dose response, CellTiter-Glo luminescence (AID 1117322); type: functional
# [44] = cytotoxicity toward HT-29 cells – cell-based, CellTiter-Glo luminescence, IC50, dose response (AID 1117330); type: functional
# Sequence of FAD-linked sulfhydryl oxidase ALR (P55789 whole entry): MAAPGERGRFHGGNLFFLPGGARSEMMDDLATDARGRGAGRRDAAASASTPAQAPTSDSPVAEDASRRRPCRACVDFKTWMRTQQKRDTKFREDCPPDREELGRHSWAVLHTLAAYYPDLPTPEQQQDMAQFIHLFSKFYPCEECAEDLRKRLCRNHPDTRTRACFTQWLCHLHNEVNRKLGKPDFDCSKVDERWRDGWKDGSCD
smiles,measurement,setting,value
COc1cc(Br)cc(CN2CCN(c3ncccn3)CC2)c1O,AC50,[1],> 100 µM (inactive)
same,EC50,[2],1.02 µM (active)
same,EC50,Mu-type opioid receptor,92.5 µM (inactive)
Nc1ccc2nn(-c3cc([N+](=O)[O-])ccc3O)nc2c1,AC50,[3],> 20 µM (inactive)
COc1cccc(-c2cc(C(=O)N3CCN(C(c4ccccc4)c4ccccc4)CC3)no2)c1,EC50,[4],25.2 µM (active)
same,EC50,[5],1.61 µM (active)
same,IC50,Beta-galactosidase,> 80 µM (inactive)
CC(C)OC(=O)c1nnn(-c2nonc2N)c1CN1CCc2ccccc2C1,Ki,fMet-Leu-Phe receptor,50 µM (inactive)
COc1cc(/C=C(\C#N)C(=O)Nc2ccccc2F)ccc1OCCN1CCOCC1,IC50,[6],> 67.5 µM (inactive)
same,IC50,cells,> 67.5 µM (inactive)
same,IC50,H9c2,8.88 µM (active)
COc1ccc(CN2CCN(C(=O)c3cccs3)CC2)cc1,EC50,[2],76.1 µM (inactive)
same,EC50,Mu-type opioid receptor,92.5 µM (inactive)
CN(C)CCCNc1ncnc2oc(-c3ccccc3)c(-c3ccccc3)c12,AC50,[7],21.7 µM (active)
O=C(C1=C(O)C(=O)N(Cc2ccccc2)C1c1ccco1)c1ccco1 (stereo not given),Ki,fMet-Leu-Phe receptor,12.4 µM (active)
COc1ccc(OCC(=O)N2CCN(S(=O)(=O)c3ccc(Cl)s3)CC2)cc1,IC50,Beta-galactosidase,> 80 µM (inactive)
COC(=O)[C@]12C[C@H](CC(=O)NCC3CCCCC3)C(=O)N(CCC3=CCCCC3)C1=C[C@H](C(C)(C)C)O[C@@H]2C,AC50,[8],2.45 µM (active)
same,AC50,[9],21.5 µM (active)
same,AC50,[10],3.68 µM (active)
same,AC50,[11],3.6 µM (active)
same,AC50,[12],3.66 µM (active)
Cc1ccc(S(=O)(=O)N[C@H]2C=C[C@@H](CC(=O)N3CCC(Cc4ccccc4)CC3)O[C@H]2CO)cc1,AC50,HEK293 [13],14.2 µM (active)
same,AC50,[14],14.2 µM (active)
COc1ccc(S(=O)(=O)N[C@H]2C=C[C@H](CC(=O)N3CCC(Cc4ccccc4)CC3)O[C@@H]2CO)cc1,AC50,HEK293 [13],9.52 µM (active)
same,AC50,[14],9.52 µM (active)
C[C@H]1CCCCO[C@H](CN(C)Cc2ccc(C(F)(F)F)cc2)[C@@H](C)CN([C@@H](C)CO)C(=O)c2cc(NC(=O)c3ccccc3)ccc2O1,AC50,[15],36.4 µM (active)
same,AC50,[16],21.2 µM (active)
same,AC50,Paired box protein Pax-8,8.95 µM (active)
C[C@@H]1CN([C@@H](C)CO)C(=O)c2cc(NC(=O)NC3CCCCC3)ccc2O[C@@H]1CN(C)C(=O)Nc1ccc2c(c1)OCO2,AC50,[17],9.33 µM (active)
C[C@H]1CN([C@@H](C)CO)S(=O)(=O)c2ccc(-c3ccccc3F)cc2O[C@@H]1CN(C)Cc1cccnc1,AC50,[18],23 µM (active)
Cc1cccc(-n2ncc(Cl)c(Cl)c2=O)c1,AC50,[19],7.6 µM (active)
same,AC50,[20],25.6 µM (active)
same,EC50,BJ [21],5.1 µM (inconclusive)
same,AC50,[18],2.27 µM (active)
same,AC50,[22],5.8 µM (active)
same,EC50,BJ [23],> 150 µM (inconclusive)
same,EC50,BJ [24],1.02 µM (active)
same,AC50,[25],7.36 µM (active)
same,AC50,HEK293 [26],3.08 µM (active)
same,AC50,[27],20.4 µM (active)
same,EC50,BJ [28],0.556 µM (active)
same,AC50,[29],2.66 µM (active)
same,EC50,[30],5.17 µM (active)
same,AC50,[31],12.4 µM (active)
same,IC50,[32],5.33 µM (active)
same,AC50,[33],40.7 µM (active)
same,AC50,[34],8.69 µM (active)
same,AC50,Paired box protein Pax-8,5.11 µM (active)
same,AC50,[35],27.5 µM (active)
same,AC50,[36],8.05 µM (active)
COC(=O)Nc1nc2ccc(C(=O)C3CC3)cc2[nH]1 [CYCLOBENDAZOLE],IC50,[37],> 20 µM (inactive)
same,IC50,[38],> 20 µM (inactive)
same,IC50,[6],> 67.5 µM (inactive)
same,IC50,[39],0.174 µM (active)
same,IC50,[40],0.417 µM (active)
same,IC50,[41],0.156 µM (active)
same,IC50,cells,> 67.5 µM (inactive)
same,IC50,[42],0.416 µM (active)
same,IC50,[43],0.162 µM (active)
same,IC50,[44],1.68 µM (active)

# — ChEMBL document CHEMBL1201862, “PubChem BioAssay data set” (2004)
